# Experimental data: patent publication US8318812B2, “Therapeutic agents for the treatment of lymphoid malignancies” (The Ohio State University Research Foundation, priority 2006, dated 2012)
# Experiments:
# Cyclin D1 = experiment: Western blot of Cyclin D1 in Mino cell line; type: cell-based, Human
# Description: Primary MCL cells were isolated from PBMC (with informed patient consent under a protocol approved by IRB) as described before. All the MCL patients were identified as outlined by the World Health Organization (WHO) classification. Human mantle cell lymphoma patient cell lines (Mino and Jeko) were obtained from Dr. Raymond Lai. Primary cells or MCL cell lines were incubated in RPMI 1640 media, supplemented with 10%-20% heat-inactivated fetal bovine serum, 2 mM L-glutamine and penicillin (100 U/mL)/streptomycin ([…]) at 37° C. in an atmosphere of 5% CO2. FTY720 was synthesized as previously described. Toxicity was determined by flow cytometry using Annexin-V-FITC and Propidium Iodide (PI) staining. Apoptotic cells were identified as Annexin-V+ and/or PI+ cells. Cells excluding both FITC and PI were considered viable. Western Blotting was performed as described previously using indicated antibodies. […]
# FTY720 induced apoptosis is associated with down-modulation of Cyclin D1 and Akt. […] To determine if the FTY720 induced apoptosis is mediated through modulation of these targets relevant to the pathogenesis of the disease, we evaluated the effect of FTY720 on levels of Cyclin D1, p-Akt and Akt proteins by Wester Blotting analysis using specific antibodies in primary MCL cells and cell lines. […]
# [1] = system: 697-neo and 697-Bcl-2 cell lines; experiment: Annexin V/PI viability in 697-neo and 697-Bcl-2 cells; type: cell-based, Human; conditions: 24 hours
# Description: (§1) Cells: Blood was obtained from patients with B-cell CLL with informed consent under a protocol approved by the hospital internal review board. All patients examined in this series had immunophenotypically defined CLL as outlined by the modified 96 National Cancer Institute criteria. B-CLL cells were isolated from freshly donated blood using ficoll density gradient centrifugation (Ficoll-Paque Plus, Amershan Biosciences, Piscataway, N.J.). Isolated mononuclear cells were incubated in RPMI 1640 media (Gibco/Invitrogen, Carlsbad, Calif.) supplemented with 10% heat-inactivated fetal bovine serum (FBS, Hyclone Laboratories, Logan, Utah), 2 mM L-glutamine (Invitrogen, Carlsbad, Calif.), and penicillin (100 U/mL)/streptomycin (100 μg/ml) [Sigma-Aldrich, St. Louis] at 37° C. in an atmosphere of 5% CO2. Freshly isolated B-CLL cells were used in all experiments described herein. […]
# (§2) Analysis of cell viability and apoptosis: The cell viability was carried out by dual staining with Annexin V conjugated to flourescein-isothyocyanate (FITC) and Propidium iodide (PI) as described previously. Briefly, 1×10^6 cells were stained with Annexin V-FITC (BD Pharmingen) and Propidium iodide (BD Pharmingen) for 15 minutes in dark and analyzed by flow cytometry using a Beckman-Coulter EPICS XL cytometer (Beckman-Coulter, Miami, Fla.). […]
# Jeko cells = experiment: Annexin V/PI toxicity in Jeko cells; type: cell-based; conditions: Homo sapiens, WinNolin sigmoid inhibitory model
# Description: (§3) Primary MCL cells were isolated from PBMC (with informed patient consent under a protocol approved by IRB) as described before. All the MCL patients were identified as outlined by the World Health Organization (WHO) classification. Human mantle cell lymphoma patient cell lines (Mino and Jeko) were obtained from Dr. Raymond Lai. Primary cells or MCL cell lines were incubated in RPMI 1640 media, supplemented with 10%-20% heat-inactivated fetal bovine serum, 2 mM L-glutamine and penicillin (100 U/mL)/streptomycin ([…]) at 37° C. in an atmosphere of 5% CO2. FTY720 was synthesized as previously described. Toxicity was determined by flow cytometry using Annexin-V-FITC and Propidium Iodide (PI) staining. Apoptotic cells were identified as Annexin-V+ and/or PI+ cells. Cells excluding both FITC and PI were considered viable. Western Blotting was performed as described previously using indicated antibodies. The PARP (Ab-2) and Caspase 9 antibodies were purchased from Oncogene/Calbiochem/EMD Biosciences (San Diego, Calif.). Cyclin D1, Akt, Actin, Mcl-1, p-ERK, ERK and Bcl-2 were obtained from Santa Cruz biotech (Santa Cruz, Calif.).
# Several therapeutic agents, including fludarabine, chlorambucil, 2-chloro-2-deoxyadenosine and glucocorticoids, induce toxicity in B cell malignancies through activating caspases, the cysteine proteases of CED3/ICE family. […]
# Mino cells = experiment: Annexin V/PI toxicity in Mino cells; type: cell-based, Human; conditions: Homo sapiens, WinNolin sigmoid inhibitory model
# Description: as §3
# Several therapeutic agents, including fludarabine, chlorambucil, 2-chloro-2-deoxyadenosine and glucocorticoids, induce toxicity in B cell malignancies through activating caspases, the cysteine proteases of CED3/ICE family. Inhibition of these caspases results in abrogation of apoptosis mediated by the toxic stimuli. To determine if caspase activation is involved in FTY720-induced cytotoxicity in MCL, we pretreated Mino cells with 150 μM broad spectrum caspase inhibitor z-VAD-fmk. […] Activation of caspases results in cleavage of key cellular proteins including poly-ADP-ribose polymerase (PARP).
# [2] = system: MEC, Ramos, Raji, 697 and RS4-11 B cell lines; experiment: Annexin V/PI viability by flow cytometry in B cell lines; type: cell-based, Human; conditions: 0.6-10 uM FTY720; 24 and 48 hours
# Description: as §1, §2
smiles,measurement,setting,value
"CCCCCCCCc1ccc(CCC(N)(CO)CO)cc1.Cl [FTY720, 2-Amino-2-[2-(4-octylphenyl)ethyl]propane 1,3-diol hydrochloride]",reduction in Cyclin D1,Cyclin D1,pronounced inhibition seen as early as 24 hrs
same,cellular cytotoxicity in 697-neo versus 697-Bcl-2 over expressing cell line,[1],comparable levels of cellular cytotoxicity
same,IC50,Jeko cells,4.46 µM
same,IC50,Mino cells,11.9 µM
same,viable cells (Annexin V-/PI-),[2],dose dependent inhibition of viable cells
